Assay results as given in patent US20230091810A1, “FIRST-IN-CLASS OF SHMT2 AND MTHFD2 INHIBITORS AS ANTITUMOR AGENTS” (Duquesne University of the Holy Spirit, priority 2017, published 2023).
Blank lines part the entries; values can stand above or below the molecule they belong to.

Key:
MIA PaCa-2 (PaC) = test: proliferation assay, MIA PaCa-2 pancreatic cancer cells; assay type: cell-based, human; settings: folate-/glycine-free RPMI1640 with 25 nM leucovorin; 96 h; read-out: IC50s (SE) MIA PaCa-2 (PaC)
Experimental: (§1) Proliferation assays were performed with engineered Chinese hamster ovary (CHO) cell lines R2 (transporter-null), PC43-10 (expresses RFC only), RT16 (FRα only), and R2/PCFT4 (PCFT only) cultured in folate-/glycine-free RPMI1640 supplemented with 25 nM leucovorin. Additional results are shown for HCT116 (colon tumor cells (CTC)), IGROV1 (epithelial ovarian cancer (EOC) cells), H460 (non-small cell lung cancer (NSCLC) cells), MIAPaCa-2 (pancreatic cancer (PaC) cells), and HPAC (PaC).
(§2) Cell culture and proliferation/protection assays. The HCT116 cell lines including the serine hydroxymethyltransferase (SHMT) 1, SHMT2, and methylene THF dehydrogenase 2 (MTHFD2) knockout (KO) cells were previously described (47,53). The H460 cell line was obtained from the American Type Culture Collection (Manassas, VA), whereas the MIA PaCa-2 cells were provided by Dr. Yubin Ge (Karmanos Cancer Institute). Cell lines were verified by STR analysis by Genetica DNA Laboratories (Burlington, NC). MTXRIIOua^R2-4 (i.e. R2) Chinese hamster ovary (CHO) cells were generously provided by Dr. Wayne Flintoff (University of Western Ontario) (54). From this parental R2 cell line, human RFC and PCFT were individually transfected to generate the isogenic CHO cell lines designated PC43-10 (RFC) and R2/PCFT4 (PCFT) (55-57). Human tumor cell lines were cultured in folate-free RPMI supplemented with 10% dialyzed fetal bovine serum (Sigma-Aldrich), 1% penicillin/streptomycin solution, 2 mM L-glutamine, and 25 nM leucovorin in a humidified atmosphere at 37° C. in the presence of 5% CO2 and 95% air. The CHO cell lines were cultured in alpha-minimal essential medium (alpha-MEM) supplemented with 10% bovine calf serum, 1% penicillin/streptomycin solution, and 2 mM L-glutamine. Additionally, the transfected CHO cell lines (i.e. R2/PCFT4 and PC43-10) were maintained under continuous selection with 1 mg/ml of G418.
(§3) For proliferation assays of the HCT116, H460, and MIA PaCa2 tumor cell lines, the cells were plated in 96-well plates in an identical manner to the CHO experiments, except that the maximal drug concentration was increased to 10 µM. Glycine/nucleoside protection experiments in CHO and tumor cell lines were performed in folate- and glycine-free RPMI 1640/10% dialyzed fetal bovine serum supplemented with 25 nM leucovorin without additions, or in the presence of adenosine (60 µM), thymidine (10 µM), glycine (130 µM) and/or 5-aminoimidazole-4-carboxamide (AICA) (320 µM). Growth of metabolite-treated cells was normalized to controls treated with metabolites and vehicle (i.e., DMSO) both singly and in combination. Treatments with all metabolites were performed in parallel on the same plate for a given drug.

IGROV1 (EOC) = test: proliferation assay, IGROV1 epithelial ovarian cancer cells; assay type: cell-based, human; settings: folate-/glycine-free RPMI1640 with 25 nM leucovorin; read-out: IC50s (SE) IGROV1 (EOC)
Experimental: as §1, §3

PC43-10 (RFC) (CHO) = test: proliferation assay, PC43-10 CHO cells expressing RFC only; assay type: cell-based, Chinese hamster; settings: folate-/glycine-free RPMI1640 with 25 nM leucovorin; 96 h; drug 0-1000 nM; read-out: IC50s (SE) PC43-10 (RFC) (CHO)
Experimental: as §1, §2
For proliferation assays with the CHO cell lines, the cells were treated with drugs (0-1 µM) in a 96-well plate (2000 cells/well) in glycine-free, nucleoside-free folate-free RPMI supplemented with 10% dialyzed fetal bovine serum, 1% penicillin/streptomycin, 2 mM L-glutamine, and 25 nM leucovorin (final volume 200 µL) over a 96 h incubation period at 37° C. with 5% CO2. […] To quantify viable cells, the media was removed and plates were washed once with 100 µL Dulbecco’s Phosphate-Buffered Saline (PBS), after which 100 µL PBS and 20 µL Cell Titer-blue (Promega) were added. Relative cell numbers were proportional to the fluorescence measured with a fluorescence plate reader (590 nm emission, 560 nm excitation). Background fluorescence (cell-free wells treated with Cell Titer-blue) was subtracted and these corrected values were normalized to results for cells treated in an identical manner without drugs.

HPAC (PaC) = test: proliferation assay, HPAC pancreatic cancer cells; assay type: cell-based, human; settings: folate-/glycine-free RPMI1640 with 25 nM leucovorin; read-out: IC50s (SE) HPAC (PaC)
Experimental: as §1, §3

RT16 (FR alpha) (CHO) = test: proliferation assay, RT16 CHO cells expressing FR alpha only; assay type: cell-based, Chinese hamster; settings: folate-/glycine-free RPMI1640 with 25 nM leucovorin; 96 h; read-out: IC50s (SE) RT16 (FR alpha) (CHO)
Experimental: as §1
For proliferation assays with the CHO cell lines, the cells were treated with drugs (0-1 µM) in a 96-well plate (2000 cells/well) in glycine-free, nucleoside-free folate-free RPMI supplemented with 10% dialyzed fetal bovine serum, 1% penicillin/streptomycin, 2 mM L-glutamine, and 25 nM leucovorin (final volume 200 µL) over a 96 h incubation period at 37° C. with 5% CO2. The drugs were dissolved in DMSO; an equivalent amount of DMSO was added to the control (no addition) samples. To quantify viable cells, the media was removed and plates were washed once with 100 µL Dulbecco’s Phosphate-Buffered Saline (PBS), after which 100 µL PBS and 20 µL Cell Titer-blue (Promega) were added. Relative cell numbers were proportional to the fluorescence measured with a fluorescence plate reader (590 nm emission, 560 nm excitation). Background fluorescence (cell-free wells treated with Cell Titer-blue) was subtracted and these corrected values were normalized to results for cells treated in an identical manner without drugs.

[1] = system: human MIA PaCa-2 pancreatic adenocarcinoma xenografts; test: in vivo efficacy trial with MIA PaCa-2 pancreatic cancer xenografts; parameters: species or system SCID mice
Experimental: Female ICR SCID mice (10 weeks old; 19 g average body weight) were implanted bilaterally with human MIA PaCa-2 tumors. […] The mice were weighed and tumors were measured with a caliper two-to-three times weekly; mice were sacrificed when the cumulative tumor burden reached 1500 mg. Tumor weights were estimated from two-dimensional measurements, where tumor mass (in mg) = (a x b^2)/2, and a and b are the tumor length and width in mm, respectively. The tumor masses from both tumors on each mouse were added together, and the total mass per mouse was used for calculations of anti-tumor activity. Quantitative end-points include: (i) tumor growth delay [T-C, where T is the median time in days required for the treatment group tumors to reach a predetermined size (e.g., 1000 mg), and C is the median time in days for the control group tumors to reach the same size; tumor-free survivors are excluded from these calculations]; and (ii) T/C (in percent) when treatment (T) and control (C) groups for the control groups reached 700 mg in size (exponential growth phase). The median value of each group was determined (including zeros). Mouse weights were monitored as a gauge of drug toxicity.
Female ICR SCID mice (10 weeks old; 19 g average body weight) were implanted bilaterally with human MIA PaCa-2 PaC tumors.
In vivo efficacy trial with MIA PaCa-2 pancreatic cancer xenografts. Methods for in vivo maintenance of MIA PaCa-2 tumor xenografts and drug efficacy evaluations are analogous to those previously described (58, 62-67). MIA PaCa-2 human pancreatic cancer cells (5 × 10^6 cells/flank) were bilaterally implanted subcutaneously with tumor fragments (30-60 mg) with a 12-gauge trocar in female […] SCID mice (NCI Animal Production Program). The mice were 10 weeks old on day 0 (tumor implant) with an average body weight of 19 g. For the efficacy trial, the mice were maintained on either a folate-deficient diet from Harlan-Teklad (TD.00434) starting 14 days before subcutaneous tumor implant to ensure serum folate levels would approximate those of humans. A separate cohort of mice was fed a folate-replete control diet from Lab Diet (5021). Mice were supplied with food and water ad libitum. Serum folate concentrations were monitored prior to tumor implant and post study by Lactobacillus casei bioassay (68). The mice in each group (folate-deficient and standard diet) were pooled before unselective distribution to the treatment and control groups. […] The drugs were dissolved in 5% ethanol (v/v), 1% Tween-80 (v/v), and 0.5% NaHCO3 and were administered intravenously (0.2 ml/injection). The mice were weighed and tumors were measured with a caliper two-to-three times weekly; mice were sacrificed when the cumulative tumor burden reached 1500 mg. Tumor weights were estimated from two-dimensional measurements, where tumor mass (in mg) = (a × b^2)/2, and a and b are the tumor length and width in mm, respectively. The tumor masses from both tumors on each mouse were added together, and the total mass per mouse was used for calculations of anti-tumor activity. Quantitative end-points include: (i) tumor growth delay [T-C, where T is the median time in days required for the treatment group tumors to reach a predetermined size (e.g., 1000 mg), and C is the median time in days for the control group tumors to reach the same size; tumor-free survivors are excluded from these calculations]; and (ii) T/C (in percent) when treatment (T) and control (C) groups for the control groups reached 700 mg in size (exponential growth phase). The median value of each group was determined (including zeros). Mouse weights were monitored as a gauge of drug toxicity.

H460 cells = test: glycine/nucleoside protection of growth inhibition in H460 cells; assay type: cell-based, human
Experimental: We also tested the protective effects of AICA (320 µM) which is metabolized to AICAR (ZMP) (AICARFTase substrate), thus circumventing the GARFTase step in de novo purine biosynthesis (27) (see FIG. 1). […] Analogous results were obtained with HCT116 and MIA PaCa-2 tumor cells (see FIG. 14).
as §3

SHMT2 = target: T1, SHMT2 (Homo sapiens, UniProt P34897); test: in vitro inhibition of purified SHMT2, coupled SHMT2-MTHFD2 assay with NADH readout; settings: purified N-terminally His-tagged enzyme; compounds as monoglutamates; * designates one experiment
T1 sequence (P34897 30-504): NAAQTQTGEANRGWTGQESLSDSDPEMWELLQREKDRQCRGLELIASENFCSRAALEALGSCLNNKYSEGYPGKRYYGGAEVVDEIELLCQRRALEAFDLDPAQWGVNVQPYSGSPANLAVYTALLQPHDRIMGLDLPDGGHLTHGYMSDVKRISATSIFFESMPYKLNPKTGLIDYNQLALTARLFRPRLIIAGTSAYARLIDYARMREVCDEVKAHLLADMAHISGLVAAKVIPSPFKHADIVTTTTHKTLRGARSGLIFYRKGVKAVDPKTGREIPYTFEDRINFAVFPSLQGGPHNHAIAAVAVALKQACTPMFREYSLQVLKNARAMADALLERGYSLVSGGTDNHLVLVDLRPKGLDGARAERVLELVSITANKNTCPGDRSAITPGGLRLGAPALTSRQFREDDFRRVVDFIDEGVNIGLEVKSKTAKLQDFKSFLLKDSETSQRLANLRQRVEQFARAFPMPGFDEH

[2] = IV, AGF291 Q6dx3 start d3, total 23.5 mg/kg, Gemcitabine Q4dx4 start d3, total 480 mg/kg

- IC50 (MIA PaCa-2 (PaC)): > 1000 nM
- IC50 (IGROV1 (EOC)): 229 nM
- IC50 (HPAC (PaC)): 167 nM
Compound: Nc1nc2ccn(CCCc3ccc(C(=O)N[C@@H](CCC(=O)O)C(=O)O)c(F)c3)c2c(=O)[nH]1 [AGF359]
- IC50 (PC43-10 (RFC) (CHO)): 233 nM
- IC50 (RT16 (FR alpha) (CHO)): 525 nM

- weight loss (median nadir) ([1]; nadir on day 17 for AGF291, day 6 for GEM, completely reversible after cessation of therapy): 12%
Compound: Nc1ccn([C@@H]2O[C@H](CO)[C@@H](O)C2(F)F)c(=O)n1 [Gemcitabine, reference compound]
- Mean Body Weight Loss (g/mouse) [1, 2]: -2.4 g/mouse
- Percent Body Weight Loss [1, 2]: -12.2%
- median tumor burden on day 14 ([1]; day 14, control cohort 1321 mg): 255 mg
- Median Tumor Burden in mg on d16 (range) ([1]; day 16, IV, AGF291 total 23.5 mg/kg, Gemcitabine total 480 mg/kg): 445 (150-527) mg
- Tumor Free on d52 ([1]; day 52, mice tumor free/total): 0/5
- Tumor Growth Delay (T-C) ([1]; median T-C to reach 1000 mg, AGF291 total 23.5 mg/kg, Gemcitabine total 480 mg/kg): 7.5 days
- Time to 1000 mg in days (range) ([1]; median, IV, AGF291 total 23.5 mg/kg, Gemcitabine total 480 mg/kg): 20 (19-21) days
- T/C% ([1]; treated/control median tumor burden, AGF291 7.75 mg/kg/inj Q6dx3, GEM 120 mg/kg/inj every 4 days, start day 3): 26%

- Ki SHMT2 (SHMT2): no inhibition
Compound: Nc1nc2[nH]c(CCCc3ccc(C(=O)N[C@@H](CCC(=O)O)C(=O)O)s3)cc2c(=O)[nH]1 [AGF94, reference compound]
- protection from growth inhibition by AICA (H460 cells; AICA 320 µM): completely protective
- protection from growth inhibition by adenosine (H460 cells; adenosine 60 µM, up to 10 µM drug): fully protective
- protection from growth inhibition by glycine (H460 cells; glycine 130 µM): no effect
